Measurements as given in patent US5639906A, “Fluorescent and NMR sensitive pH indicators” (The United States of America as represented by the …, priority 1994, dated 1997).
“Also recorded” adds a separate entry of the source.

What was measured:
[1] = 19F NMR pH titration of fluorinated indicators; type: physicochemical; conditions: for pK (theoretical titration curve, FIG. 2): 19F shift as a function of pH; for δ1 (limiting 19F shift difference of theoretical curve, FIG. 2) / δ2 (limiting 19F shift difference of theoretical curve, FIG. 2): shift difference between the two fluorine resonances
Text: The sample also contained Sodium Flouride as an internal chemical shift standard.
The shift for 5F NEAP-1 is referenced to the tetrafluorophthalate ^19 F resonance, while the data for 5F NEAP-2 and 5F NEAP-3 correspond to the shift differences between the two fluorine resonances. The theoretical curves correspond to: δ1 =35.6 ppm, δ2 24.7 ppm, pK=6.85 for 5F NEAP-1; δ1 =10.3 ppm, δ2 =-0.8 ppm, pK=6.6 for 5F NEAP-2; and δ1 =24.1, δ2 =13.4, pK=6.8 for 5F NEAP-3.
The magnitude of this shift, however, is insignificant in comparison to the 11 ppm titration shift of the indicator. In any event, the magnitude of this shift may be determined and corrected. In alternate embodiments, for an indicator such as NEAP-3 which contain a second fluorine to serve as a chemical shift reference both fluorines will experience a similar intracellular shift, making correction unnecessary. There is also exchange broadening of the resonance, which becomes more significant at higher magnetic field strengths. In general, the degree of broadening depends on the dissociation rate constant of the proton from the indicator. This rate is dependent on the particular indicator, on the temperature, and on the composition of the solution in which the indicator is placed. […] If the exchange is sufficiently rapid on the NMR time scale, i.e., the dissociation rate constant of the protonated indicator k-1 >>πΔv/√ 2, where Δv is the chemical shift difference of the resonance under study between the protonated and unprotonated forms of the indicator, then the observed chemical shift can be used to determine the intracellular pH according to the relation: [formula] where pK is the pK of the indicator, δo is the observed chemical shift, and δU and δP are the shifts of the unprotonated and fully protonated forms of the indicator, respectively. Although the above equation is expected to be generally adequate, at very high fields and low temperatures, the exchange might become slow enough to require a correction, as described, for example, in London, J. Magn. Reson. Series A 104, 190-196 (1993).

human erythrocytes [2] = test: Membrane crossing of extracellular indicator in human erythrocyte suspension (19F NMR); type: in vitro ADME; conditions: free acid added extracellularly
Experimental: (§1) FIGS. 3A and 3B show the ^19 F NMR spectra of human erythrocytes loaded with 5F NEAP-1 acetoxymethyl ester suspended in a solution containing 120 mM sodium chloride (NaCl) and 20 mM tris-[N-(2-hydroxyethyl)piperazine-N'-(2-ethanesulfonic acid)] ("tris-HEPES"). Tetrafluorophthalate ("TFPH") is also included as a chemical shift standard. […] The resonance associated with intracellular NEAP is denoted as "INTRA"; the resonance associated with extracellular NEAP is denoted as "EXTRA".
(§2) As an illustration of the use of the current invention, the fluorinated indicator 5F NEAP-1 is used to determine the intra- and extracellular pH in a suspension of human erythrocytes. […] Based on the chemical shift difference between the NEAP fluorine resonance and the standard, an intracellular pH value of 7.3 for this preparation is determined. Subsequently, some additional 5F NEAP-1 was added as the free acid. […] It is interesting to note that the extracellular resonance is somewhat broader than the intracellular resonance. […] An extracellular pH value of 7.0 is determined from the shift (this situation is somewhat unusual since in more typical physiological preparations the intracellular pH is lower than the extracellular pH). As noted in the above sections, small errors which result from the intracellular shift displacement of 0.1-0.3 ppm, can be, but have not been accounted for. […]

human erythrocytes [3] = test: pH measurement in human erythrocytes using 19F-NMR; type: cell-based
Experimental: as §1
According to the present invention, intracellular pH can be determined using ^19 F NMR spectroscopy of cells containing a compound of Formula I or II. Measurements have been carried out on several physiological systems of interest, including, for example, human erythrocytes and perfused rat heart. The ^19 F NMR shifts of 5F NEAP-1, 5F NEAP-2, or 5F NEAP-3 provide information which is directly interpretable in terms of the cytosolic pH. These measurements can be made using any standard pulsed NMR spectrometer equipped with a fluorine NMR probe. Typically, at least 100 transients are required for the measurements.
III. pH Measurement in Human Erythrocytes Using ^19 F-NMR
as §2

[4] = referenced to the tetrafluorophthalate 19F resonance

| downfield 19F shift of the para-fluorine upon protonation of the nitrogen (titration shift) [1] | pK (theoretical titration curve, FIG. 2) [1] | pK ([1]; as stated in summary) | δ1 (limiting 19F shift of theoretical curve, FIG. 2) [1, 4] | δ2 (limiting 19F shift of theoretical curve, FIG. 2) [1, 4] | δ1 (limiting 19F shift difference of theoretical curve, FIG. 2) [1] | δ2 (limiting 19F shift difference of theoretical curve, FIG. 2) [1] | δ1 (limiting 19F shift difference of theoretical curve, FIG. 2) ([1]; unit not given) | δ2 (limiting 19F shift difference of theoretical curve, FIG. 2) ([1]; unit not given) | Structure (SMILES) | crossing of the cell membrane (human erythrocytes [2]) | extracellular pH determined with indicator (human erythrocytes [3]; free acid added to suspension, TFPH standard) | difference between intra- and extracellular pH giving well resolved NMR resonances (human erythrocytes [3]; intracellular vs extracellular resonance) | intracellular pH determined with indicator (human erythrocytes [3]; loaded 1 hour with acetoxymethyl ester, 120 mM NaCl, 20 mM tris-HEPES, TFPH standard) | pH sensitivity of the fluorine resonances ([1]; FIG. 1) |
| --- | --- | --- | --- | --- | --- | --- | --- | --- | --- | --- | --- | --- | --- | --- |
| about 11 ppm | 6.85 | 6.8 | 35.6 ppm | 24.7 ppm |  |  |  |  | CCN(CC(=O)O)c1ccc(F)cc1OCC(=O)O [5F NEAP-1, N-ethyl-2-amino-5-fluorophenol-N,O-diacetic acid] | will not readily cross the cell membrane; also recorded: does not cross the cellular membrane in appreciable amounts | 7.0 | 0.3 pH unit | 7.3 |  |
|  | 6.6 |  |  |  | 10.3 ppm | -0.8 ppm |  |  | CCN(CC(=O)O)c1ccc(F)cc1OCc1ccc(C(=O)O)cc1F [5F NEAP-2, N-Ethyl-2-(2-fluoro-4-carboxybenzyloxy)-4-fluoroaniline-N-acetic acid] |  |  |  |  |  |
|  | 6.8 |  |  |  |  |  | 24.1 | 13.4 | CCN(CC(=O)O)c1ccc(F)cc1OCCOc1ccc(N(CC(=O)O)CC(=O)O)cc1F [5F NEAP-3, 1-(N-Ethylamino-5-fluorophenoxy)-2-(2-fluoro-4-aminophenoxy)ethane, N,N',N'-triacetic acid] |  |  |  |  | one of the fluorine resonances is pH sensitive, and the second is almost completely pH insensitive |
